pIC50: −log10 of the molar value. Read-outs that look alike come from different tables or passages of the source.
How the values were obtained:
GRK2 = molecular target: T1, GRK2 (Homo sapiens, UniProt P25098); assay: ADPGlo GRK2 Inhibition Assay (Example 8); type: biochemical; details: read-out: A: Enzymatic GRK2: IC50 (nM) (Example 8)
T1 construct: purchased SignalChem A14-10G
T1 sequence (P25098 1-689): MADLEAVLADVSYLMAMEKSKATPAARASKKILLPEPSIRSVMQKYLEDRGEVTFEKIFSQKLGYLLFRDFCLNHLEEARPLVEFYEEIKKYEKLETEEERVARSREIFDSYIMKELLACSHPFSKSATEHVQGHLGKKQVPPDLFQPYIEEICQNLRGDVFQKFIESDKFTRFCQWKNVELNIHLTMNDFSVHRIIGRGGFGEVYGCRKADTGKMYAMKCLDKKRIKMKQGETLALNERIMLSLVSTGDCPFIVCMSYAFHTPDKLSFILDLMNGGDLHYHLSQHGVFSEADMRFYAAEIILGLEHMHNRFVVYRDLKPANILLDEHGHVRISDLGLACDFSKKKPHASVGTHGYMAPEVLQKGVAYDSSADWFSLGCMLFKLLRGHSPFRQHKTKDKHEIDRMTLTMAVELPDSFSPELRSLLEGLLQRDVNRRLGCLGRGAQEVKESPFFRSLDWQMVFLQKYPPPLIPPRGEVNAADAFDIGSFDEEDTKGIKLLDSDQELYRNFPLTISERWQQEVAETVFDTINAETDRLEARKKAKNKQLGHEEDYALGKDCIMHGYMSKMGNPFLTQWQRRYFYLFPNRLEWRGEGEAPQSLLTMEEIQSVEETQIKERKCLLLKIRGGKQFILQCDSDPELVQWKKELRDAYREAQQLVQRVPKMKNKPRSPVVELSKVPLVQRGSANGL
Summary of the method: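 GRK2 (15 nM 2× enzyme solution) was preincubated 15 min with compound, then reacted 180 min at room temperature with 2× mix of 20 μM ATP plus GRKtide in HEPES pH 7.5, MgCl2, Tween-20, DTT. ADP was detected by ADP-Glo luminescence. Percent inhibition was normalised to enzyme and no-enzyme controls, with dose-response curves from threefold dilutions starting at 100 μM.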

[1] = test system: PAXF1657 control empty vector cell line; assay: 7-day proliferation assay, PAXF1657 control empty vector cell line (Example 9); type: cell-based; details: 168 h; Cell Line: PAXF1657 empty vector (EV) cell line; 7-day; read-out: C: 7-day proliferation assay: IC50 GeoMean
Summary of the method: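 Read-out is CellTiter-Glo luminescence after 7 days of continuous exposure, with compound re-dosed in fresh medium at day 3. Cells were seeded at 500/well and treated across 30 μM-0.0002 μM (10 points, 0.3% DMSO); baseline viability plates were read at compound addition.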

[2] = Enzyme Assay A, ADPGlo (Example 8)

Row | IC50 (GRK2; [2]) [nM] | IC50 (GRK2; ADPGlo GRK2 enzyme assay) [nM] | SMILES | pIC50 [1]
1 | 31 |  | Cn1c(CNc2cccc(C(=O)NCc3c(Cl)cncc3Cl)c2)nnc1-c1ccncn1 | 5.36
2 | 72 |  | CCn1cnnc1CNC(=O)c1cccc(NCc2nnc(-c3ccncn3)n2C)c1 | < 5.00
3 | 65.9 |  | Cn1c(CNc2cccc(C(=O)N[C@@H](CCO)c3ccccc3)c2)nnc1-c1ccncn1 | 4.88
4 | 4.9 |  | CC(NC(=O)c1cccc(NCc2nnc(-c3ccncn3)n2C)c1)c1ccsc1 (centres unmarked) | < 5.00
5 |  | 15.7 | Cn1c(CNc2cccc(C(=O)N[C@@H](C#N)c3cc(F)ccc3F)c2)nnc1-c1ccncn1 | 6.61
6 | 14 |  | Cn1c(CNc2cccc(C(=O)NC(CO)c3ccc(F)cc3)c2)nnc1-c1ccncn1 (centres unmarked) | < 4.52
7 | 13 |  | CC(NC(=O)c1cccc(NCc2nnc(-c3ccncn3)n2C)c1)c1cn[nH]c1 (centres unmarked) | 4.77
8 |  | 7.07 | Cc1ccc(C#N)cc1CNC(=O)c1ccnc(NCc2nnc(-c3ccncn3)n2C)c1 | 5.85
9 |  | 15.9 | COc1cccc([C@@H](C)NC(=O)c2cccc(NCc3nnc4n3CCOc3cnccc3-4)c2)c1 | < 5.44
10 | 36 |  | Cn1cc(CNC(=O)c2cccc(NCc3nnc(-c4ccncn4)n3C)c2)cn1 | 5.01
11 |  | 46.1 | CN(C)c1ncccc1CNC(=O)c1cccc(NCc2nnc(-c3ccncn3)n2C)c1 | 5.94
12 |  | 16.7 | Cn1c(CNc2cccc(C(=O)NCc3cccnc3OC(F)F)c2)nnc1-c1ccncn1 | 5.84
13 | 16 |  | Cn1c(CNc2cccc(C(=O)NCc3ccc4c(c3)CCO4)c2)nnc1-c1ccncn1 | 5.78
14 | 11 |  | Cn1c(CNc2cccc(C(=O)NCc3cccc4ncccc34)c2)nnc1-c1ccncn1 | < 5.00
15 | 6.81 |  | Cn1c(CNc2cccc(C(=O)N[C@H]3COc4cc(F)ccc43)c2)nnc1-c1ccncc1 | < 5.13
16 | 49 |  | Cn1c(CNc2cccc(C(=O)NCc3ccccc3CN3CCCC3=O)c2)nnc1-c1ccncn1 | < 5.00
17 | 27 |  | Cn1c(CNc2cccc(C(=O)NCc3nc(C4CC4)no3)c2)nnc1-c1ccncn1 | 5.24
18 |  | 15 | Cc1cccnc1[C@H](C)NC(=O)c1cccc(NCc2nnc(-c3ccncn3)n2C)c1 | < 4.52
19 |  | 12.2 | Cc1cccnc1CNC(=O)c1cccc(NCc2nnc(-c3ccncc3)[nH]2)c1 | < 4.52

Row | IC50 (GRK2; [2]) [nM] | IC50 (GRK2; ADPGlo GRK2 enzyme assay) [nM] | SMILES | pIC50 [1]
20 | 370 |  | CCn1ncnc1CNC(=O)c1cccc(NCc2nnc(-c3ccncn3)n2C)c1 | < 5.00
21 |  | 54 | Cn1c(CNc2cccc(C(=O)NCc3ccccc3S(=O)(=O)NC(C)(C)C)c2)nnc1-c1ccncn1 | 5.37
22 | 540 |  | Cn1c(CNc2cccc(C(=O)NCc3cccnc3)c2)nnc1-c1ccncn1 | < 5.00
23 |  | 40.1 | CCCn1c(CNc2cccc(C(=O)N[C@H](C)c3cccc(OC)c3)c2)nnc1-c1ccncn1 | < 6.66
24 | 22 |  | CC1Cc2cc(CNC(=O)c3cccc(NCc4nnc(-c5ccncn5)n4C)c3)ccc2O1 (centres unmarked) [drawing 401] | 5.47
25 |  | 52.8 | CC(C)C(NC(=O)c1cccc(NCc2nnc(-c3ccncn3)n2C)c1)c1ccccn1 (centres unmarked) | 5.72
26 | 11 |  | CC(NC(=O)c1cccc(NCc2nnc(-c3ccncn3)n2C)c1)c1ccncc1 (centres unmarked) | 5.67
27 | 45 |  | O=C(NCc1nncn1C1CC1)c1cccc(NCc2nnc(-c3ccncc3)[nH]2)c1 | < 5.00
28 |  | 10.8 | Cc1cc(CO)cc(C)c1CNC(=O)c1cccc(NCc2nnc(-c3ccncn3)n2C)c1 | 6.13
29 |  | 11.4 | C[C@@H](NC(=O)c1cccc(NCc2nnc(-c3ccncc3)n2C)c1)c1ncccc1Cl | < 5.32
30 | 5.38 |  | CNS(=O)(=O)c1cccc(F)c1CNC(=O)c1cccc(NCc2nnc(-c3ccncc3)[nH]2)c1 | 5.44
31 | 13 |  | Cc1ccncc1CNC(=O)c1cccc(NCc2nnc(-c3ccncn3)n2C)c1 | 6.25
32 |  | 14.1 | CCCn1c(CNc2cccc(C(=O)N[C@@H](C)c3cccc(OC)c3)c2)nnc1-c1ccncn1 | < 4.52
33 | 16 |  | Cc1cnc(C(C)NC(=O)c2cccc(NCc3nnc(-c4ccncc4)[nH]3)c2)o1 (centres unmarked) | < 5.00
34 | 17 |  | Cc1cc(CNC(=O)c2cccc(NCc3nnc(-c4ccncn4)n3C)c2)n(C)n1 | 5.38
35 |  | 16.2 | Cc1cncc(C(C)NC(=O)c2cccc(NCc3nnc(-c4ccncn4)n3C)c2)c1 (centres unmarked) | 6.11
36 | 11 |  | COC[C@H](NC(=O)c1cccc(NCc2nnc(-c3ccncc3)[nH]2)c1)c1ccccn1 | 6.39
37 | 12 |  | O=C(NCc1ccncc1)c1cccc(NCc2nnc(-c3ccncc3)[nH]2)c1 | 5.24
38 | 227 |  | Cn1c(CNc2cccc(C(=O)N[C@@H]3COCc4ccccc43)c2)nnc1-c1ccncc1F | < 4.52

The next lines start with the compound.

Row | SMILES | IC50 (GRK2; [2]) [nM] | IC50 (GRK2; ADPGlo GRK2 enzyme assay) [nM] | pIC50 [1]
39 | O=C(NCc1nnc2n1CCCC2)c1cccc(NCc2nnc(-c3ccncc3)[nH]2)c1 | 48 |  | < 5.00
40 | Cn1c(CNc2cccc(C(=O)NC(CCO)c3ccccc3F)c2)nnc1-c1ccncn1 (centres unmarked) |  | 35.6 | 6.27
41 | CCc1cccnc1CNC(=O)c1cccc(NCc2nnc(-c3ccncn3)n2C)c1 |  | 22.6 | 5.35
42 | Cn1c(CNc2cccc(C(=O)NC3CCOc4ncccc43)c2)nnc1-c1ccncn1 (centres unmarked) |  | 56.7 | < 4.52
43 | O=C(N[C@H]1COc2cc(F)ccc21)c1cccc(NCc2nnc(-c3ccncn3)n2CCO)c1 | 3.84 |  | 6.59
44 | O=C(NC(CO)c1ccccn1)c1cccc(NCc2nnc(-c3ccncc3)[nH]2)c1 (centres unmarked) | 20 |  | < 5.00
45 | O=C(N[C@H]1COc2cc(F)ccc21)c1cccc(NCc2nnc(-c3ccncc3)n2CCO)c1 | 23.2 |  | < 4.52
46 | Cn1c(CNc2cccc(C(=O)NCc3ccccc3CO)c2)nnc1-c1ccncn1 |  | 18.4 | 5.81
47 | COc1ccncc1CNC(=O)c1cccc(NCc2nnc(-c3ccncn3)n2C)c1 |  | 28.1 | 5.29
48 | CN(C)c1ccccc1CNC(=O)c1cccc(NCc2nnc(-c3ccncn3)n2C)c1 |  | 14.8 | 5.79
49 | Cn1c(CNc2cccc(C(=O)NCc3c(F)cccc3-n3cccn3)c2)nnc1-c1ccncn1 | 24 |  | < 5.00
50 | COc1cccc([C@H](C)NC(=O)c2cccc(NCc3nnc(-c4ccncc4)n3CCO)c2)c1 |  | 2.99 | < 4.52
51 | Cc1ccnc(CNC(=O)c2cccc(NCc3nnc(-c4ccncc4)[nH]3)c2)n1 | 15 |  | < 5.00
52 | CCCn1c(CNc2cccc(C(=O)N[C@@H]3COc4cc(F)ccc43)c2)nnc1-c1ccncn1 | 3.35 |  | < 4.52
53 | COc1cccc2c1OCC[C@@H]2NC(=O)c1cccc(NCc2nnc(-c3ccncn3)n2C)c1 | 87.5 |  | 6.33
54 | COc1ccccc1CNC(=O)c1cccc(NCc2nnc(-c3ccncn3)n2C)c1 | 20 |  | 5.72
55 | Cn1c(CNc2cccc(C(=O)NC3CS(=O)(=O)c4ccccc43)c2)nnc1-c1ccncn1 (centres unmarked) |  | 20.2 | 5.84
56 | CCc1nc(CNC(=O)c2cccc(NCc3nnc(-c4ccncc4)[nH]3)c2)c(C)o1 | 8.4 |  | 6.06
57 | COc1cc(F)ccc1CNC(=O)c1cccc(NCc2nnc(-c3ccncn3)n2C)c1 |  | 24.7 | 4.55
58 | O=C(NC1CCCn2ncnc21)c1cccc(NCc2nnc(-c3ccncc3)[nH]2)c1 (centres unmarked) | 20 |  | < 5.00
59 | Cn1c(CNc2cccc(C(=O)NC(c3ccncc3)C3CCC3)c2)nnc1-c1ccncn1 (centres unmarked) | 22 |  | 6.87
60 | COc1cccc2c1CCC2NC(=O)c1cccc(NCc2nnc(-c3ccncn3)n2C)c1 (centres unmarked) | 15 |  | 6.27
61 | Cn1c(CNc2cccc(C(=O)NCc3ccc(C[S+](C)[O-])cc3)c2)nnc1-c1ccncn1 (centres unmarked) | 170 |  | < 5.00
62 | Cn1c(CNc2cccc(C(=O)NCc3cccc4c3NC(=O)CO4)c2)nnc1-c1ccncn1 |  | 9.78 | 5.52
63 | Cn1c(CNc2cccc(C(=O)NC3CCOc4ccccc43)c2)nnc1-c1ccncn1 (centres unmarked) | 22 |  | 6.25
64 | Cn1c(CNc2cccc(C(=O)NC3C(=O)NCc4ccccc43)c2)nnc1-c1ccncn1 (centres unmarked) |  | 38.1 | < 4.52

From US20230009608A1, “GRK2 INHIBITORS AND USES THEREOF” (Cygnal Therapeutics, Inc., priority 2020, published 2023)
